Test results: patent US5395624A, “Depigmenting cosmetic and/or dermatological composition containing a di- or tri-caffeoylquinic acid, or a mixture thereof” (L'Oreal, priority 1992, dated 1995)
pIC50: −log10 of the molar value.

Columns and labels:
fungal tyrosinase = test: in vitro test of inhibition of tyrosinase activity; format: biochemical; conditions: L-tyrosine with L-dopa co-substrate, pH 6.5, 25° C., dopachrome at 475 nm, read-out: IC 50 (content leading to 50% inhibition of the tyrosinase)
Source text: The di- and tri-caffeoylquinic acids corresponding to general formula (I) have been studied comparatively with caffeic acid in equivalent molar quantities in the in vitro inhibition test of tyrosinase activity.
In this test, visible spectrometry at 475 mn is used to monitor the quantity of dopachrome formed during the chain of reactions by which tyrosine is transformed into melanins. These reactions are catalyzed in vitro using fungal tyrosinase in the presence of a reducing co-substrate (e.g., a small quantity of L-dopa) in order to initiate the hydroxylation reaction of L-tyrosine into L-dopa, which is then catalytically oxidized into dopaquinone, and then into dopachrome which is, an intermediate product, prior to the non-enzymatic oxidation reactions leading to melanin formation.
Accordingly, the concentration of dopachrome formed over time is measured in the presence and absence of the inhibitor.
The inhibition effect is expressed by the lowering of the maximum quantity of dopachrome formed (value of the optical density at 475 nm read on the flat part of the curve) in relation to the quantity obtained in the absence of the inhibitor.
For each compound, the content in micromoles per liter leading to 50% inhibition of the tyrosinase (IC 50) is measured.
A--Phosphate buffer 0.1M pH=6.5 (composition for 200 ml of buffer: 68.5 ml of NaH2 PO4 0.2M+31.5 ml of Na2 HPO4 0.2M+100 ml of water)
B--Mother solution of L-tyrosine at 2×10^-3 M in A
C--Mother solution of L-dopa at 10^-4 M in A
D--Mother solution of fungal tyrosinase at 2,400 units/ml in A
E--Mother solution of the inhibitor at 10^-2 M in ethanol (solutions C and D must be prepared the same day).
homogenize and establish equilibrium at 25° C.
add 0.05 ml of D to the test trough
mix rapidly and observe the kinetics by measuring absorption at 475 nm as a function of time.

melanocytes = conditions: background statement; cited from earlier work
[1] = background statement; cited from earlier work

Row | SMILES | pIC50 (fungal tyrosinase) | cytotoxicity for melanocytes (melanocytes) | irritation [1]
1 | O=C(C=Cc1ccc(O)c(O)c1)OC1CC(OC(=O)C=Cc2ccc(O)c(O)c2)(C(=O)O)CC(O)C1O (centres unmarked) [1,3-di-caffeoylquinic acid] | 4.33 | – | –
2 | O=C(C=Cc1ccc(O)c(O)c1)OC1CC(O)(C(=O)O)CC(O)C1OC(=O)C=Cc1ccc(O)c(O)c1 (centres unmarked) [4,5-di-caffeoylquinic acid] | 4.35 | – | –
3 | Oc1ccc(O)cc1 [hydroquinone] | – | cytotoxic for melanocytes | especially irritating
4 | O=C(C=Cc1ccc(O)c(O)c1)OC1CC(O)(C(=O)O)CC(O)C1OC(=O)C=Cc1ccc(O)c(O)c1 (centres unmarked) [3,4-di-caffeoylquinic acid] | 4.07 | – | –

The remaining compounds from weak to strong by pIC50 (fungal tyrosinase), led by results:

Row | pIC50 (fungal tyrosinase) | SMILES | cytotoxicity for melanocytes (melanocytes) | irritation [1]
5 | 3.28 | O=C(O)/C=C/c1ccc(O)c(O)c1 [Caffeic acid, reference compound] | – | –
6 | 4.28 | O=C(C=Cc1ccc(O)c(O)c1)OC1CC(O)(C(=O)O)CC(OC(=O)C=Cc2ccc(O)c(O)c2)C1O (centres unmarked) [3,5-di-caffeoylquinic acid] | – | –
7 | 4.54 | O=C(C=Cc1ccc(O)c(O)c1)OC1CC(O)(C(=O)O)CC(OC(=O)C=Cc2ccc(O)c(O)c2)C1OC(=O)C=Cc1ccc(O)c(O)c1 (centres unmarked) [3,4,5-tri-caffeoylquinic acid] | – | –
